Assays:
[1] = target: factor Xa, human (Homo sapiens, UniProt P00742); experiment: Inhibition of factor Xa; type: biochemical
Description: The inhibition of factor Xa by the compounds according to the invention and the measurement of the anticoagulant and antithrombotic activity can be determined by conventional in-vitro or in-vivo methods. A suitable method is described, for example, by J. Hauptmann et al. in Thrombosis and Haemostasis 1990, 63, 220-223.
The inhibition of factor Xa can be measured, for example, by the method of T. Hara et al. in Thromb. Haemostas. 1994, 71, 314-319.

[2] = target: TF/VIIa (Homo sapiens, UniProt P08709); experiment: Inhibition of TF/VIIa; type: biochemical
Chain of TF/VIIa (P08709 213-466 limits assumed): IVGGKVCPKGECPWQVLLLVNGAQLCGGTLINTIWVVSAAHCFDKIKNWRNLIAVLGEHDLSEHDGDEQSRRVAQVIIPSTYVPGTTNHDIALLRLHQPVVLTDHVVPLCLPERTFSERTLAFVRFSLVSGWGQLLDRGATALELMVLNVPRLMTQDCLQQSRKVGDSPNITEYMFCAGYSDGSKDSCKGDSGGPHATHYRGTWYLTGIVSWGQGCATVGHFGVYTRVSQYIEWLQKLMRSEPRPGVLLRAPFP
Chain of TF/VIIa (P08709 61-212 limits assumed): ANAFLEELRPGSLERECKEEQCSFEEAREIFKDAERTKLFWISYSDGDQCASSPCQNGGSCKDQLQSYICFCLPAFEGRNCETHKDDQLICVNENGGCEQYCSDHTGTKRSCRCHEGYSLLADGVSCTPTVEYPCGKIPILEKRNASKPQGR
Chain of TF/VIIa (P13726 33-295 partner): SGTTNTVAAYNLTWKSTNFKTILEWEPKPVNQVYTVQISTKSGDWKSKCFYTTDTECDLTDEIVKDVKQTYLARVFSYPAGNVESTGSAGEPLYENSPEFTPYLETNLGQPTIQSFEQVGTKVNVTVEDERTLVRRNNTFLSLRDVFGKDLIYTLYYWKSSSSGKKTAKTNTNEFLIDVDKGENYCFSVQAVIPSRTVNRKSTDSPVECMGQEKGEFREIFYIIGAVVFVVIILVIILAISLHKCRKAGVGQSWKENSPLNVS
Description: The inhibition of factor VIIa by the compounds according to the invention and the measurement of the anticoagulant and antithrombotic activity can be determined by conventional in-vitro or in-vivo methods. A conventional method for the measurement of the inhibition of factor VIIa is described, for example, by H. F. Ronning et al. in Thrombosis Research 1996, 84, 73-81.

Chain of factor Xa, human (P00742 235-488 limits assumed): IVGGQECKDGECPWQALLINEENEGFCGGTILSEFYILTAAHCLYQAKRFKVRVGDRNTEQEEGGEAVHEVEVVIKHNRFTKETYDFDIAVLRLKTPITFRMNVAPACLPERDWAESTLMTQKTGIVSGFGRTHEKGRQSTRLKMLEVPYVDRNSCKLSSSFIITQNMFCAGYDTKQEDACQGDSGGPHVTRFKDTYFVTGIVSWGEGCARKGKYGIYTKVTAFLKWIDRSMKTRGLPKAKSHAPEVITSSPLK
Chain of factor Xa, human (P00742 41-179 limits assumed): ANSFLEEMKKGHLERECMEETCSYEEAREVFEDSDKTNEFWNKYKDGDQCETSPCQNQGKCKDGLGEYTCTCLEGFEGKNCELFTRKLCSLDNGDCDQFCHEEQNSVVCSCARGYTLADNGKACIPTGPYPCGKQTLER

| Compound | melting point [°C] | IC50 [1] [nM] | IC50 [2] [nM] |
| --- | --- | --- | --- |
| CCCN(Cc1cccc(C(=N)N)c1)C(=O)Oc1ccc(-c2ccccc2S(N)(=O)=O)cc1 [Example 2.3, 2′-aminosulfonylbiphenyl-4-yl (3-amidinobenzyl)propylcarbamate] | 119 to 120 | 450 | 350 |
| CCCN(Cc1cccc(C(=N)N)c1)C(=O)Oc1ccc(-c2ccccc2S(C)(=O)=O)cc1 [Example 3.3, 2′-methylsulfonylbiphenyl-4-yl (3-amidinobenzyl)propylcarbamate] | – | 340 | 130 |

From patent US20030199698A1, “Carbamic acid esters as inhibitors of factor xa” (priority 2000, published 2003)
